Measured values from PubChem BioAssay AID1963873 (Molecular Pharmacology Branch, DTP, NCI, 2024).

Test system: 276233-004-R-J1-PDC KRAS spheroids with HUVEC/MSC, viability
Test: Anticancer human tumor 276233-004-R-J1-PDC patient-derived colon adenocarcinoma cell line growth inhibition [KRAS2]
Conditions: for viability, T/C: stronger effect = lower value
From the text: Multicellular complex tumor spheroid response to RAS pathway inhibitors in combination with a targeted agents in patient-derived cell lines with oncogenic KRAS variants from multiple cancer types
A high-throughput screen of multi-cell type tumor spheroids was designed to identify active combinations of targeted small molecules and KRAS pathway inhibitors. Complex spheroids include a stromal component modeled by human endothelial cells (HUVEC) and fibroblasts modeled by human mesenchymal stem cells (MSCs). The concentration ranges selected for each drug and investigational agent were based upon clinically achievable concentrations if the clinical Cmax of the agent was known.
Compounds. The drugs and investigational agents: BI-3406 (NSC825286), BAY-293 (NSC824723), batoprotafib (TNO155; NSC825523), sotorasib (AMG 510; NSC818433), MRTX1257 (NSC819558), elimusertib (BAY 1895344; NSC800525), molibresib (GSK525762; NSC774829), temuterkib (LY3214996; NSC803410), venetoclax (NSC766270), alisertib (NSC759677), olaparib (NSC753686), talazoparib (NSC767125), erdafitinib (NSC781556), ipatasertib (NSC767898), cabozantinib (NSC761068), nintedanib (NSC756659), abemaciclib (NSC768073), docetaxel (NSC628503), trametinib (NSC758246), and sapanisertib (NSC764658) were obtained from the National Cancer Institute (NCI) Developmental Therapeutics Program Chemical Repository. The FDA-approved anticancer drug set is available from the Developmental Therapeutics Program. […] The stock solutions were prepared in dimethyl sulfoxide (DMSO, Sigma-Aldrich, St. Louis, MO, cat. D2650) at 800-fold the tested concentration and stored at -70 degrees C prior to their use. All drugs and investigational agents were tested over a range starting from a high concentration at or near the clinical Cmax and decreasing in half-log increments. If the clinical Cmax for an agent had not been determined, the highest concentration tested was 10 microM.
Cell Culture. All cells were maintained in an incubator at 37 degrees C and 5% CO2 with 95% humidity. The PDC lines were cultured according to standard operating procedures established by the NCI PDMR (https://pdmr.cancer.gov/sops/default.htm). Briefly, all PDCs were thawed and cultured in Matrigel-coated flasks prepared with a working solution of 1X Ham's F-12 nutrient mix, without supplementation (Invitrogen, Waltham, MA, cat. 11765054), 100 U/mL penicillin-streptomycin (Invitrogen, cat. 15140122), and 2.5% Matrigel (Corning Inc., Corning, NY, cat. 354248) for the first three passages. All PDCs were cultured in complete DMEM/F-12 media containing advanced DMEM/F-12 (Invitrogen, cat. 12634028), 4.9% defined fetal bovine serum, heat inactivated (HyClone Laboratories Inc., Logan, UT, cat. SH30070.03HI), 389 ng/mL hydrocortisone (Sigma-Aldrich, cat. H4001), 9.7 ng/mL human EGF recombinant protein (Invitrogen, cat. PHG0313), 23.4 microg/mL adenine (Sigma-Aldrich, cat. A2786), 97.3 U/mL penicillin-streptomycin (Invitrogen, cat. 15140122), 1.9 mM L-glutamine (Invitrogen, cat. 25030081), and 9.7 microM Y-27632 dihydrochloride (Tocris Bioscience, Bristol, United Kingdom, cat. 1254). The PDCs were cultured in complete DMEM/F12 media without 9.7 microM Y-27632 dihydrochloride for at least two passages prior to the screen. The established cell line HOP-62 was cultured in RPMI 1640 medium, HEPES (Invitrogen, cat. 22400105) with 10% defined fetal bovine serum (HyClone Laboratories Inc., cat. SH30070.03) and 2 mM L-glutamine (Invitrogen, cat. 25030081). The pooled donor HUVEC were cultured in endothelial cell growth medium 2 (PromoCell, Heidelberg, Germany, cat. C-22011) and the hMSC were cultured in mesenchymal stem cell growth medium 2 (PromoCell, cat. C-28009). For all experiments, HUVEC and hMSC were used at passages </=5, while the malignant cell lines were used at passages </=15. […]

[1] = curve of first compound, second compound 0.1 µM
[2] = curve of first compound, second compound 0.316 µM
[3] = curve of first compound, second compound 1 µM
[4] = curve of first compound, second compound 3.16 µM
[5] = curve of first compound, second compound 10 µM
[6] = second compound 0.1 µM, first compound 0.0316 µM
[7] = second compound 0.1 µM, first compound 0.1 µM
[8] = second compound 0.1 µM, first compound 0.316 µM
[9] = second compound 0.1 µM, first compound 1 µM
[10] = second compound 0.1 µM, first compound 3.16 µM
[11] = second compound 0.1 µM, first compound 10 µM
[12] = second compound 0.316 µM, first compound 0.0316 µM
[13] = second compound 0.316 µM, first compound 0.1 µM
[14] = second compound 0.316 µM, first compound 0.316 µM
[15] = second compound 0.316 µM, first compound 1 µM
[16] = second compound 0.316 µM, first compound 3.16 µM
[17] = second compound 0.316 µM, first compound 10 µM
[18] = second compound 1 µM, first compound 0.0316 µM
[19] = second compound 1 µM, first compound 0.1 µM
[20] = second compound 1 µM, first compound 0.316 µM
[21] = second compound 1 µM, first compound 1 µM
[22] = second compound 1 µM, first compound 3.16 µM
[23] = second compound 1 µM, first compound 10 µM
[24] = second compound 3.16 µM, first compound 0.0316 µM
[25] = second compound 3.16 µM, first compound 0.1 µM
[26] = second compound 3.16 µM, first compound 0.316 µM
[27] = second compound 3.16 µM, first compound 1 µM
[28] = second compound 3.16 µM, first compound 3.16 µM
[29] = second compound 3.16 µM, first compound 10 µM
[30] = second compound 10 µM, first compound 0.0316 µM
[31] = second compound 10 µM, first compound 0.1 µM
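Further: cells exposed to agents for seven days before viability read.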
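Wherever viability, T/C is given: 100% = DMSO vehicle control wells and lower values mean fewer viable cells.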

## CC1OCC2(CCN(c3cnc(Sc4ccnc(N)c4Cl)c(N)n3)CC2)C1N (stereo not given) + COc1cc2nc(C)nc(NC(C)c3cc(N)cc(C(F)(F)F)c3)c2cc1OC1CCOC1
[1]
  IC50: > 10 µM
[2]
  IC50: > 10 µM
[3]
  IC50: > 10 µM
[4]
  IC50: 5.25 µM
[5]
  IC50: 0.0411 µM
[6]
  viability, T/C: 93.6%
[7]
  viability, T/C: 100%
[8]
  viability, T/C: 70.5%
[9]
  viability, T/C: 78%
[10]
  viability, T/C: 62.9%
[11]
  viability, T/C: 51.7%
[12]
  viability, T/C: 109%
[13]
  viability, T/C: 79%
[14]
  viability, T/C: 78.5%
[15]
  viability, T/C: 62.7%
[16]
  viability, T/C: 61.8%
[17]
  viability, T/C: 57.2%
[18]
  viability, T/C: 91.5%
[19]
  viability, T/C: 86.9%
[20]
  viability, T/C: 81.4%
[21]
  viability, T/C: 80.4%
[22]
  viability, T/C: 55.1%
[23]
  viability, T/C: 50.8%
[24]
  viability, T/C: 85.8%
[25]
  viability, T/C: 77.8%
[26]
  viability, T/C: 71.8%
[27]
  viability, T/C: 70%
[28]
  viability, T/C: 54%
[29]
  viability, T/C: 42.7%
[30]
  viability, T/C: 52.4%
[31]
  viability, T/C: 44.1%
Second compound 10 µM, first compound 0.316 µM
  viability, T/C: 34.4%
Second compound 10 µM, first compound 1 µM
  viability, T/C: 33.9%
Second compound 10 µM, first compound 3.16 µM
  viability, T/C: 24.2%
Second compound 10 µM, first compound 10 µM
  viability, T/C: 18.7%

## COc1cc(Nc2ncc3c(n2)-c2ccc(Cl)cc2C(c2c(F)cccc2OC)=NC3)ccc1C(=O)O
Compound 0.1 µM
  viability, T/C: 99.8% [middle of 5 runs]
Compound 0.316 µM
  viability, T/C: 93.1% [middle of 5 runs]
Compound 1 µM
  viability, T/C: 87.7% [middle of 5 runs]
Compound 3.16 µM
  viability, T/C: 95.5% [middle of 5 runs]
Curve of compound
  IC50: > 10 µM

## COC(=O)c1ccc2c(C(=Nc3ccc(N(C)C(=O)CN4CCN(C)CC4)cc3)c3ccccc3)c(O)[nH]c2c1 + C=CC(=O)N1CCN(c2nc(OCC3CCCN3C)nc3c2CCN(c2cccc4cccc(C)c24)C3)CC1CC#N
Curve of first compound, second compound 0.0316 µM
  IC50: > 10 µM
[1]
  IC50: > 10 µM
[2]
  IC50: > 10 µM
[3]
  IC50: > 10 µM
[4]
  IC50: < 0.0316 µM
Second compound 0.0316 µM, first compound 0.0316 µM
  viability, T/C: 86.4%
Second compound 0.0316 µM, first compound 0.1 µM
  viability, T/C: 95.1%
Second compound 0.0316 µM, first compound 0.316 µM
  viability, T/C: 77.5%
Second compound 0.0316 µM, first compound 1 µM
  viability, T/C: 83.6%
Second compound 0.0316 µM, first compound 3.16 µM
  viability, T/C: 81.8%
Second compound 0.0316 µM, first compound 10 µM
  viability, T/C: 93.2%
[6]
  viability, T/C: 77.4%
[7]
  viability, T/C: 65.8%
[8]
  viability, T/C: 59.2%
[9]
  viability, T/C: 71.7%
[10]
  viability, T/C: 89.7%
[11]
  viability, T/C: 64%
[12]
  viability, T/C: 83.6%
[13]
  viability, T/C: 87.5%
[14]
  viability, T/C: 76.2%
[15]
  viability, T/C: 77.1%
[16]
  viability, T/C: 78.6%
[17]
  viability, T/C: 70%
[18]
  viability, T/C: 88%
[19]
  viability, T/C: 78.8%
[20]
  viability, T/C: 69.8%
[21]
  viability, T/C: 62.1%
[22]
  viability, T/C: 69.1%
[23]
  viability, T/C: 65.7%
[24]
  viability, T/C: 39.6%
[25]
  viability, T/C: 46.6%
[26]
  viability, T/C: 34.4%
[27]
  viability, T/C: 26.9%
[28]
  viability, T/C: 18.7%
[29]
  viability, T/C: 3.45%

## CN(C)C/C=C/C(=O)Nc1cc2c(Nc3ccc(F)c(Cl)c3)ncnc2cc1O[C@H]1CCOC1 + C=CC(=O)N1CCN(c2nc(=O)n(-c3c(C)ccnc3C(C)C)c3nc(-c4c(O)cccc4F)c(F)cc23)C(C)C1
[1]
  IC50: > 0.1 µM
[2]
  IC50: > 0.1 µM
[3]
  IC50: > 0.1 µM
[4]
  IC50: > 0.1 µM
[5]
  IC50: > 0.1 µM
Second compound 0.1 µM, first compound 0.000316 µM
  viability, T/C: 93.5%
Second compound 0.1 µM, first compound 0.001 µM
  viability, T/C: 97.1%
Second compound 0.1 µM, first compound 0.00316 µM
  viability, T/C: 72%
Second compound 0.1 µM, first compound 0.01 µM
  viability, T/C: 87.6%
[6]
  viability, T/C: 75.8%
[7]
  viability, T/C: 85.3%
Second compound 0.316 µM, first compound 0.000316 µM
  viability, T/C: 109%
Second compound 0.316 µM, first compound 0.001 µM
  viability, T/C: 80.8%
Second compound 0.316 µM, first compound 0.00316 µM
  viability, T/C: 83%
Second compound 0.316 µM, first compound 0.01 µM
  viability, T/C: 67.6%
[12]
  viability, T/C: 88%
[13]
  viability, T/C: 87%
Second compound 1 µM, first compound 0.000316 µM
  viability, T/C: 103%
Second compound 1 µM, first compound 0.001 µM
  viability, T/C: 101%
Second compound 1 µM, first compound 0.00316 µM
  viability, T/C: 80.8%
Second compound 1 µM, first compound 0.01 µM
  viability, T/C: 82.6%
[18]
  viability, T/C: 84.6%
[19]
  viability, T/C: 95.6%
Second compound 3.16 µM, first compound 0.000316 µM
  viability, T/C: 87.1%
Second compound 3.16 µM, first compound 0.001 µM
  viability, T/C: 77.8%
Second compound 3.16 µM, first compound 0.00316 µM
  viability, T/C: 85.9%
Second compound 3.16 µM, first compound 0.01 µM
  viability, T/C: 69.9%
[24]
  viability, T/C: 78.6%
[25]
  viability, T/C: 69.7%
Second compound 10 µM, first compound 0.000316 µM
  viability, T/C: 66%
Second compound 10 µM, first compound 0.001 µM
  viability, T/C: 65.8%
Second compound 10 µM, first compound 0.00316 µM
  viability, T/C: 57.8%
Second compound 10 µM, first compound 0.01 µM
  viability, T/C: 66.8%
[30]
  viability, T/C: 69.1%
[31]
  viability, T/C: 84.9%
